Read-outs that look alike come from different tables or passages of the source.
Experiments:
Type in all cases: cell-based
Phytophthora infestans = settings: single active, 7 days after inoculation
Botrytis cinerea = experiment: Activity against the grey mold Botrytis cinerea in the microtiterplate test; settings: single active, 7 days after inoculation
Description: Synergism can be described as an interaction where the combined effect of two or more compounds is greater than the sum of the individual effects of each of the compounds. The presence of a synergistic effect in terms of percent control or efficacy, between two mixing partners (X and Y) can be calculated using the Colby equation (Colby, S. R., 1967, Calculating Synergistic and Antagonistic Responses in Herbicide Combinations, Weeds, 15, 20-22): The measured parameters were compared to the growth of the active compound-free control variant (100%) and the fungus-free blank value to determine the relative growth in % of the pathogens in the respective active compounds. These percentages were converted into efficacies. […] The expected efficacies of active compound mixtures were determined using Colby's formula [R. S. Colby, “Calculating synergistic and antagonistic responses of herbicide combinations”, Weeds 15, 20-22 (1967)] and compared with the observed efficacies. […] The stock solutions were mixed according to the ratio, pipetted onto a micro titer plate (MTP) and diluted with water to the stated concentrations. A spore suspension of Botrci cinerea in an aqueous biomalt or yeast-bactopeptone-sodiumacetate solution was then added. The plates were placed in a water vapor-saturated chamber at a temperature of 18° C.

Septoria tritici = experiment: Activity against leaf blotch on wheat caused by Septoria tritici (microtiter plate); settings: single active, 7 days after inoculation
Description: Synergism can be described as an interaction where the combined effect of two or more compounds is greater than the sum of the individual effects of each of the compounds. The presence of a synergistic effect in terms of percent control or efficacy, between two mixing partners (X and Y) can be calculated using the Colby equation (Colby, S. R., 1967, Calculating Synergistic and Antagonistic Responses in Herbicide Combinations, Weeds, 15, 20-22): The measured parameters were compared to the growth of the active compound-free control variant (100%) and the fungus-free blank value to determine the relative growth in % of the pathogens in the respective active compounds. These percentages were converted into efficacies. […] The expected efficacies of active compound mixtures were determined using Colby's formula [R. S. Colby, “Calculating synergistic and antagonistic responses of herbicide combinations”, Weeds 15, 20-22 (1967)] and compared with the observed efficacies. […] The stock solutions were mixed according to the ratio, pipetted onto a micro titer plate (MTP) and diluted with water to the stated concentrations. A spore suspension of Septoria tritici in an aqueous biomalt or yeast-bactopeptone-glycerine or DOB solution was then added. The plates were placed in a water vapor-saturated chamber at a temperature of 18° C. Using an absorption photometer, the MTPs were measured at 405 nm 7 days after the inoculation.

Cercospora sojina = experiment: Activity against Cercospora sojina in the microtiter test; settings: single active, 7 days after inoculation
Description: Synergism can be described as an interaction where the combined effect of two or more compounds is greater than the sum of the individual effects of each of the compounds. The presence of a synergistic effect in terms of percent control or efficacy, between two mixing partners (X and Y) can be calculated using the Colby equation (Colby, S. R., 1967, Calculating Synergistic and Antagonistic Responses in Herbicide Combinations, Weeds, 15, 20-22): The measured parameters were compared to the growth of the active compound-free control variant (100%) and the fungus-free blank value to determine the relative growth in % of the pathogens in the respective active compounds. These percentages were converted into efficacies. […] The expected efficacies of active compound mixtures were determined using Colby's formula [R. S. Colby, “Calculating synergistic and antagonistic responses of herbicide combinations”, Weeds 15, 20-22 (1967)] and compared with the observed efficacies. […] The stock solutions were mixed according to the ratio, pipetted onto a micro titer plate (MTP) and diluted with water to the stated concentrations. A spore suspension of Cercospora sojina in an aqueous biomalt or yeast-bactopeptone-sodiumacetate solution was then added. The plates were placed in a water vapor-saturated chamber at a temperature of 18° C. Using an absorption photometer, the MTPs were measured at 405 nm 7 days after the inoculation.

[1] = test system: Colletotrichum orbiculare; experiment: Activity against Colletotrichum orbiculare in the microtiterplate test; settings: single active, 7 days after inoculation
Rhynchosporium secalis = experiment: Activity against Rhynchosporium secalis in the microtiterplate test; settings: single active, 63 ppm, 7 days after inoculation
Description: Synergism can be described as an interaction where the combined effect of two or more compounds is greater than the sum of the individual effects of each of the compounds. The presence of a synergistic effect in terms of percent control or efficacy, between two mixing partners (X and Y) can be calculated using the Colby equation (Colby, S. R., 1967, Calculating Synergistic and Antagonistic Responses in Herbicide Combinations, Weeds, 15, 20-22): The measured parameters were compared to the growth of the active compound-free control variant (100%) and the fungus-free blank value to determine the relative growth in % of the pathogens in the respective active compounds. These percentages were converted into efficacies. […] The expected efficacies of active compound mixtures were determined using Colby's formula [R. S. Colby, “Calculating synergistic and antagonistic responses of herbicide combinations”, Weeds 15, 20-22 (1967)] and compared with the observed efficacies. […] The stock solutions were mixed according to the ratio, pipetted onto a micro titer plate (MTP) and diluted with water to the stated concentrations. A spore suspension of Rhynchosporium secalis in an aqueous biomalt or yeast-bactopeptone-glycerine or DOB solution was then added. […] Using an absorption photometer, the MTPs were measured at 405 nm 7 days after the inoculation.

Sclerotinia sclerotiorum = experiment: Activity against Sclerotinia sclerotiorum in the microtiterplate test; settings: single active, 7 days after inoculation

Compound: CCN(C(=O)c1cnn(C(C)C(C)C)c1C)c1ccnnc1 (racemic) [Dimpropyridaz, 1-[(1 RS)-1,2-dimethylpropyl]-N-ethyl-5-methyl-N-pyridazin-4-yl-1H-pyrazole-4-carboxamide]
- Observed efficacy (Phytophthora infestans; 0.016 ppm): 0%
- Observed efficacy (Phytophthora infestans; 0.063 ppm): 4%
- Observed efficacy (Botrytis cinerea; 0.063 ppm): 0%
- Observed efficacy (Botrytis cinerea; 0.25 ppm): 1%
- Observed efficacy (Botrytis cinerea; 1 ppm): 0%
- Observed efficacy (Septoria tritici; 0.063 ppm): 5%
- Observed efficacy (Septoria tritici; 0.25 ppm): 7%
- Observed efficacy (Cercospora sojina; 0.25 ppm): 0%
- Observed efficacy (Cercospora sojina; 63 ppm): 23%
- Observed efficacy ([1]; 63 ppm): 14%
- Observed efficacy (Rhynchosporium secalis): 12%
- Observed efficacy (Sclerotinia sclerotiorum; 0.25 ppm): 0%

Compound: N#Cc1ccc(Oc2ccc(C(F)(F)C(O)(Cn3ncnc3S)c3ccc(F)cc3F)nc2)cc1 (centres unmarked) [B.5)d), 4-[[6-[2-(2,4-difluorophenyl)-1,1-difluoro-2-hydroxy-3-(5-sulfanyl-1,2,4-triazol-1-yl)propyl]-3-pyridyl]oxy]benzonitrile]
- Observed efficacy (Rhynchosporium secalis): 70%

Compound: COc1ccnc(C(=O)N[C@@H](C)C(=O)O[C@@H](C)C(c2ccc(F)cc2)c2ccc(F)cc2)c1OC(C)=O [Florylpicoxamid, florylpicoxamid, reference compound]
- Observed efficacy (Cercospora sojina; 0.25 ppm): 6%
- Observed efficacy (Cercospora sojina; 16 ppm): 61%

Compound: CC(C)c1ccc(Cl)cc1CN(C(=O)c1c(C(F)F)nn(C)c1F)C1CC1 [Isoflucypram, isoflucypram, reference compound]
- Observed efficacy (Botrytis cinerea; 0.25 ppm): 57%
- Observed efficacy (Septoria tritici; 0.063 ppm): 40%

Compound: Cc1cc(C(F)(F)F)nn1CC(=O)N1CCC(c2nc(C3=NOC(c4c(F)cccc4F)C3)cs2)CC1 (centres unmarked) [Oxathiapiproline, oxathiapiprolin, reference compound]
- Observed efficacy (Phytophthora infestans; 0.016 ppm): 0%
- Observed efficacy (Phytophthora infestans; 0.063 ppm): 11%

Compound: CON(C(=O)c1cn(C)nc1C(F)F)C(C)Cc1c(Cl)cc(Cl)cc1Cl (centres unmarked) [Pydiflumetofen, pydiflumetofen, reference compound]
- Observed efficacy (Botrytis cinerea; 0.063 ppm): 42%
- Observed efficacy ([1]; 16 ppm): 59%

Compound: pyrapropoyne [reference compound]
- Observed efficacy (Botrytis cinerea; 1 ppm): 26%
- Observed efficacy (Sclerotinia sclerotiorum; 1 ppm): 27%

From patent US20250255301A1, “PESTICIDAL MIXTURES COMPRISING A PYRAZOLE COMPOUND” (BASF SE, priority 2019, published 2025)
